Test results: patent US9657351B2, “MRNA-based gene expression for personalizing patient cancer therapy with an MDM2 antagonist” (Hoffmann-La Roche Inc., priority 2013, dated 2017)

How the values were obtained:
Test in all cases: COMPOUND A In Vitro Assay
Type in all cases: cell-based
C32 = conditions: Homo sapiens, Skin, TP53 Wild type
Procedure, shortened: (§1)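 Each human tumour-derived line is exposed to COMPOUND A, an MDM2 antagonist, in a high-throughput format, and an IC50 is generated. Baseline mRNA was profiled by RNA sequencing before treatment.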

QG-56 = conditions: Homo sapiens, Lung, TP53 Mutant
Procedure, shortened: as §1

KYSE-150 = conditions: Homo sapiens, Esophagus, TP53 Mutant
Procedure, shortened: as §1

NCI-H929 = conditions: Homo sapiens, Lymphocyte B, bone marrow, TP53 Wild type
Procedure, shortened: as §1

SW780 = conditions: Homo sapiens
Procedure, shortened: as §1

PANC-1 = conditions: Homo sapiens, Pancreas, TP53 Mutant
Procedure, shortened: as §1

NCI-H2347 = conditions: Homo sapiens, Lung, TP53 Wild type
Procedure, shortened: as §1

HARA-B = conditions: Homo sapiens, Lung, TP53 Mutant
Procedure, shortened: as §1

786-O = conditions: Homo sapiens, 786-0, Kidney, TP53 Mutant
Procedure, shortened: as §1

MDA-MB-134-VI = conditions: Homo sapiens, Breast, mammary gland, TP53 Mutant
Procedure, shortened: as §1

OPM-2 = conditions: Homo sapiens, Lymphocyte B, TP53 Mutant
Procedure, shortened: as §1

L-363 = conditions: Homo sapiens, Lymphocyte, peripheral blood, TP53 Mutant
Procedure, shortened: as §1

SJCRH30 = conditions: Homo sapiens, Muscle, TP53 Mutant
Procedure, shortened: as §1

HEC-1-A = conditions: Homo sapiens, Uterus, endometrium, TP53 Mutant
Procedure, shortened: as §1

NCI-H1437 = conditions: Homo sapiens, Lung, TP53 Mutant
Procedure, shortened: as §1

Y79 = conditions: Homo sapiens
Procedure, shortened: as §1

SKM-1 = conditions: Homo sapiens, Lymphocyte, peripheral blood, TP53 Mutant
Procedure, shortened: as §1

J82 = conditions: Homo sapiens, Urinary, bladder, TP53 Mutant
Procedure, shortened: as §1

KMS-28BM = conditions: Homo sapiens, Lymphocyte, TP53 Mutant
Procedure, shortened: as §1

5637 = conditions: Homo sapiens, Urinary, bladder, TP53 Mutant
Procedure, shortened: as §1

BT-483 = conditions: Homo sapiens, Breast, mammary gland, TP53 Mutant
Procedure, shortened: as §1

NCI-H441 = conditions: Homo sapiens, Lung, TP53 Mutant
Procedure, shortened: as §1

SK-N-SH = conditions: Homo sapiens
Procedure, shortened: as §1

Hs 766T = conditions: Homo sapiens, Hs766T, Pancreas, TP53 Mutant
Procedure, shortened: as §1

U-937 = conditions: Homo sapiens, Pleura, TP53 Mutant
Procedure, shortened: as §1

CMK-11-5 = conditions: Homo sapiens, Lymphocyte, TP53 Mutant
Procedure, shortened: as §1

U-118 MG = conditions: Homo sapiens, Brain, TP53 Mutant
Procedure, shortened: as §1

SW1116 = conditions: Homo sapiens, SW 1116, Intestine, large, colon, TP53 Mutant
Procedure, shortened: as §1

KHM-1B = conditions: Homo sapiens, Lymphocyte, TP53 Wild type
Procedure, shortened: as §1

HEC-151 = conditions: Homo sapiens, Uterus, TP53 Mutant
Procedure, shortened: as §1

NCI-H748 = conditions: Homo sapiens, Lung, TP53 Mutant
Procedure, shortened: as §1

NCI-H716 = conditions: Homo sapiens, Intestine, large, caecum, TP53 Mutant
Procedure, shortened: as §1

ARH-77 = conditions: Homo sapiens, Lymphocyte B, peripheral blood, TP53 Mutant
Procedure, shortened: as §1

T-47D = conditions: Homo sapiens, T47D, Breast, mammary gland, TP53 Mutant
Procedure, shortened: as §1

SW403 = conditions: Homo sapiens, SW-403, Intestine, large, colon, TP53 Mutant
Procedure, shortened: as §1

Detroit 562 = conditions: Homo sapiens, Pharynx, TP53 Mutant
Procedure, shortened: as §1

CCOc1cc(C(C)(C)C)ccc1C1=N[C@@](C)(c2ccc(Cl)cc2)[C@@](C)(c2ccc(Cl)cc2)N1C(=O)N1CCN(CCCS(C)(=O)=O)CC1 [COMPOUND A]
IC50 (C32): 3 µM | IC50 (QG-56): 10 µM | IC50 (KYSE-150): 3 µM | IC50 (NCI-H929): 0.3 µM | IC50 (SW780; SW780, SW780, Urinary, bladder, TP53 Wild type): 0.97 µM | IC50 (SW780; SW780, SW780 cells): 1 µM | IC50 (PANC-1): 22 µM | IC50 (NCI-H2347): 9 µM | IC50 (HARA-B): 10 µM | IC50 (786-O): 9.5 µM | IC50 (MDA-MB-134-VI): 38 µM | IC50 (OPM-2): 13 µM | IC50 (L-363): 32 µM | IC50 (SJCRH30): 16 µM | IC50 (HEC-1-A): 16 µM | IC50 (NCI-H1437): 10 µM | IC50 (Y79; Y79, Y79, Eye, retina, TP53 Wild type): 0.61 µM | IC50 (Y79; Y79, Y79 cells): 0.6 µM | IC50 (SKM-1): 19 µM | IC50 (J82): 20 µM | IC50 (KMS-28BM): 9 µM | IC50 5637: 8.5 µM | IC50 (BT-483): 20 µM | IC50 (NCI-H441): 10 µM | IC50 (SK-N-SH; Brain, TP53 Wild type): 0.21 µM | IC50 (SK-N-SH; SK-N-SH cells): 0.2 µM | IC50 (Hs 766T): 17 µM | IC50 (U-937): 5.2 µM | IC50 (CMK-11-5): 9.6 µM | IC50 (U-118 MG): 19 µM | IC50 (SW1116): 12 µM | IC50 (KHM-1B): 6.9 µM | IC50 (HEC-151): 2.2 µM | IC50 (NCI-H748): 16 µM | IC50 (NCI-H716): 13 µM | IC50 (ARH-77): 17 µM | IC50 (T-47D): 9.9 µM | IC50 (SW403): 6 µM | IC50 (Detroit 562): 6.2 µM
